Experimental data taken from patent US20250281497A1, “FUSED AMINO PYRIMIDINE COMPOUNDS FOR TREATMENT OF SEIZURE DISORDERS” (Ovid Therapeutics Inc., priority 2024, published 2025).

How the values were obtained:
KCC2-S940A = molecular target: T1, KCC2-S940A (Homo sapiens, UniProt Q9H2X9, S963A); test: Tl+ flux assay, KCC2-S940A construct; assay type: cell-based; conditions: HEK-293
T1 construct: expressed in transfected cells; host or cells: HEK-293
T1 sequence (Q9H2X9 1-1116 isoform Q9H2X9-2 S940A): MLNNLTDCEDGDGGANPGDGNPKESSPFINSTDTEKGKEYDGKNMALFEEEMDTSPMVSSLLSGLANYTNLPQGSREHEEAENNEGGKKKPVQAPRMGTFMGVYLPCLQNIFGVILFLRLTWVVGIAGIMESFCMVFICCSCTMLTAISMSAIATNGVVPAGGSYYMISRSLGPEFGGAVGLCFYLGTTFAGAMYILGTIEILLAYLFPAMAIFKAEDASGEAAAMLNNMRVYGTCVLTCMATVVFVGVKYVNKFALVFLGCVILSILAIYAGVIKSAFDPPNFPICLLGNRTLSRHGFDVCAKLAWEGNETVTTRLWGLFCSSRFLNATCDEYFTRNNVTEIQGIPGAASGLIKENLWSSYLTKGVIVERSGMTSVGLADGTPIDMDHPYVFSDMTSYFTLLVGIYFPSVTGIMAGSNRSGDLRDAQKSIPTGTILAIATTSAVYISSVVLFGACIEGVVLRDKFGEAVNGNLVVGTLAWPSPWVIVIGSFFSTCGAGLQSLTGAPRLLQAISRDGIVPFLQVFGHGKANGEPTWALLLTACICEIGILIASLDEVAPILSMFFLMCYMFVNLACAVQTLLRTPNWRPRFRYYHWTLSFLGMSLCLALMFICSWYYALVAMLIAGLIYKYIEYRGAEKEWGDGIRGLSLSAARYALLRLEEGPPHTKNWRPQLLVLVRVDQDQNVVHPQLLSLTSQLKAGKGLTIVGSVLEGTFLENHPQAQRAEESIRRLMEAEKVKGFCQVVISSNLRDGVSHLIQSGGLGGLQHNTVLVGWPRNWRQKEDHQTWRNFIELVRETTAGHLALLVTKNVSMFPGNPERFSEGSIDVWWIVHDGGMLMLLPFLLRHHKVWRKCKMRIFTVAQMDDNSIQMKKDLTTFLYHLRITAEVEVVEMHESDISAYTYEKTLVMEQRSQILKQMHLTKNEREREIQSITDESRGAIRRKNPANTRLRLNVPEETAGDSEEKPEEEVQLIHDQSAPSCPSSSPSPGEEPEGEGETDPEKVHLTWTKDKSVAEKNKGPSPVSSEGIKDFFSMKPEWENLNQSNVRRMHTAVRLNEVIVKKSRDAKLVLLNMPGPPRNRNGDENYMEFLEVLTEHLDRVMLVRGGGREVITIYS
Experimental: FLIPR TI Flux assay. HEK-293 cells were washed with HBSS, and then incubated with loading buffer containing TI sensitive fluorescent dye (https://www.moleculardevices.com), 20 μM bumetanide 20 μM ouabain and 2.5 mM probenecid for 1 h at room temperature (RT) under control conditions or with drugs in the dark using a FlexStation 3 microplate reader (Molecular Devices) and imaged […] for 30 min. Stimulus buffer was added containing 5 mM K^+/0.5 mM Tl^+ and cells were imaged every 1.5 over a 190 second time course The initial rate Tl^+ uptake (Relative Fluorescence Units (RFU) per second) was determined following addition of the stimulus buffer as outlined previously (Conway et at, 2017, supra) (Lee et at, 2022, supra).
Several studies have shown that the activity and plasma membrane accumulation of KCC2 is potentiated via phosphorylation of S940, a process mediated by the activity of protein kinase C and protein phosphatase 1 (Lee et al., 2011, supra; Lee et al., J Biol Chem 282, 29777-29784 (2007); Moore et al., Proc. Natl. Acad. Sci. U.S.A. 115, 10166-10171 (2018); Moore et al., Trends Neurosci. 40, 555-571 (2017); Silayeva et al., Proc. Natl. Acad. Sci. U.S.A. 112, 3523-3528 (2015)). […] Compared to KCC2, effects on KCC3, KCC4, and NKCC1 were only seen at concentrations more than 35-fold that of KCC2 (>100 μM) (FIG. 1G).

[1] = design: species or system mice; conditions: in vivo

## C[C@@H]1CN(c2nc3c(c(Nc4ccc(C5CCCCC5)cc4)n2)COC3)CCO1 [Compound A, (R)—N-(4-cyclohexylphenyl)-2-(2-methylmorpholino)-5,7-dihydrofuro[3,4-d]pyrimidin-4-amine]
KCC2-S940A
  activity of KCC2-S940A construct: increased the activity
[1]
  gross effects on mouse behavior, open field: no gross effects on mouse behavior
